Data on two compounds can be found in patent publication US20190328783A1, “A METHOD OF ENGINEERING PRODRUG-SPECIFIC HYPERSENSITIVE T-CELLS FOR IMMUNOTHERAPY BY GENE EXPRESSION” (CELLECTIS, priority 2016, published 2019).

For assay [1], the system named is primary T cells transfected with CDA-BFP mRNA. In words: Viability by flow cytometry of primary T cells transfected with CDA-BFP mRNA, in presence of prodrug. It is filed as cell-based, human. Particulars: increasing concentration (0 to 10 mM) for 48H; FIG. 1. From the text: FIG. 1: Analysis by FACS for BFP expression in T cells render hypersensitive to the prodrugs 5fdC and 5HmdC after CDA expression. mRNA encoding a chimeric construction consisting of CDA fused to a BFP reporter. A) Viability rate expressed in percentage: comparison between mock (T cells not transfected by the CDA expression plasmid)—represented in the graph by unfilled bar- and transfected T cells by the CDA expression plasmid—represented in the graph by filled bar-, when all cells are submitted to an increasing dose of the 5fdC prodrug (from 0 to 10 mM); B) The same than for A) excepted that the cells are submitted to an increasing dose of the 5HmdC prodrug (from 0 to 10 mM). […]
To test the ability of CDA expression to endow primary T cell with hypersensitivity to hypomethylated agents 5hmdC and 5FdC, primary T cells were transfected with 40 μg of mRNA encoding a chimeric construction consisting of CDA fused to a BFP reported via a 2A self-cleaving peptide (SEQ ID NO. 9). One day post transfection, cells were recovered and analyzed by flow cytometry for BFP expression.
Transfected cells were incubated in the presence of increasing concentration of 5hmdC or 5FdC for 48H. At the end of incubation, cell viability was determined by flow cytometry. […]

In assay [2] the test system is dCK KO T cells expressing CDA-BFP. In words: Viability by flow cytometry of dCK KO T cells transfected with CDA-BFP mRNA, in presence of prodrug. It is filed as cell-based, human. Particulars: increasing concentration (0 to 10 mM) for 48H; FIG. 2. On the procedure: FIG. 2: Analysis by FACS for BFP expression in T cells render hypersensitive to the prodrugs 5fdC and 5HmdC by combining CDA expression and inactivation of dCK gene by KO. mRNA encoding a chimeric construction consisting of CDA fused to a BFP reporter, and a KO inactivation of dCK is made by using TALE-nuclease as explained later. […]
To further investigate the ability of T cells to be sensitive to 5fdC, IC50 for this prodrug was determined on dCK KO and WT T cells. […] At the end of 5fdC incubation, viability of T cells was determined by FACS analysis.
FIG. 2 presents the results to show whether primary T cells having undergone dCK KO can still endow resistance to purine nucleotide analogues as well as with hypersensitivity toward 5hmDC and SFDC. One day post transfection, dCK KO T cells were recovered and analyzed by flow cytometry for BFP expression. […] As described earlier, transfected cells were incubated in the presence of increasing concentration of 5hmdC or 5FdC for 48H and at the end of incubation, cell viability was determined by flow cytometry.
(In general: In flow cytometry, cells or beads pass a laser one at a time.)

Each structure is given as a SMILES string. “Also recorded” adds a separate entry of the source.

On to `Nc1nc(=O)n([C@H]2C[C@H](O)[C@@H](CO)O2)cc1C=O` [5FdC, 5-formyl-2′-deoxycytidine], for which the “sensitivity (cell viability) of CDA-transfected T cells with respect to wild type cells” value in assay [1] is “increase of sensitivity”. For the same compound, in assay [2], the “prodrug hypersensitivity (cell viability) of dCK KO T cells transfected with CDA-BFP” value is given as “increase of specific prodrug hypersensitivity; also recorded: hypersensitive”.
For `Nc1nc(=O)n([C@H]2C[C@H](O)[C@@H](CO)O2)cc1CO` [5hmdC, 5-hydroxymethyl-2′-deoxycytidine], in that order: “increase of sensitivity” and “increase of specific prodrug hypersensitivity; also recorded: hypersensitive”.
